From patent publication US20140031388A1, “AKT INACTIVATION BY TOCOPHERYL DERIVATIVES” (priority 2012, published 2014)
Read-outs that look alike come from different tables or passages of the source.

What was measured:
LNCaP-abl cells = assay: MTT viability assay, LNCaP-abl; type: cell-based; conditions: Homo sapiens; LNCaP-abl cells (comparable to parental LNCaP); read-out: IC50, antiproliferative effect
Protocol: (§1) The prostate cancer cell lines, LNCaP and PC-3, were purchased from American Type Culture Collection (Manassas, Va.) and maintained in RPMI 1640 medium containing 10% heat-inactivated fetal bovine serum at 37° C. in a humidified incubator containing 5% CO2. The LNCaP-abl cells were a generous gift from Dr. Qianben Wang (The Ohio State University). Normal prostate epithelial cells were purchased from Lonza (Walkersville, Md.) and were cultured in the vendor-recommended defined prostate epithelial cell growth medium. For experiments, LNCaP cells were plated on poly-D-lysine-coated culture flasks at a density of 12,000 cells per cm^2 surface area for 24 hours, followed by treatment with test agents in serum-free RPMI 1640 medium. The α- and γ-tocopherols were purchased from Sigma-Aldrich (St. Louis, Mo.). The tocopherol derivatives, α- and γ-VE5, were synthesized by the inventors.
LNCaP cells were plated into poly-D-lysine-coated 96-well plates and PC-3 and LNCaP-abl cells into uncoated plates at the density of 5,000 cells per well in the presence of 10% FBS. […] The medium was then removed from each well and replaced with DMSO to dissolve the reduced MTT dye for subsequent colorimetric measurement of absorbance at 595 nm. Cell viabilities are calculated as percentages of that in the corresponding vehicle-treated control group.

[1] = target: T1, PH domain of PDK1 (GST-PH domain fusion protein) (Homo sapiens, UniProt O15530); assay: Surface plasmon resonance binding, PDK1 PH domain; conditions: SPR; means (n = 3) ± SD; read-out: Kd, PDK1 PH domain
T1 construct: made in house
T1 sequence (O15530 459-550 limits assumed): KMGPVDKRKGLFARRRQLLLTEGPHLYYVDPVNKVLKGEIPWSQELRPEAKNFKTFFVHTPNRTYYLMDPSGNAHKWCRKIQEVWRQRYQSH
Description: (§2) The cDNA fragments corresponding to the putative PH domain sequences of PHLPP1 (+115 to +372), PDK1 (+1225 to +1671), Akt1 (+1 to +447) and ILK (+538 to +646) were PCR-amplified using the plasmids pcDNA-HA-PHLPP1, pWZL-Neo-Myr-FLAG-PDPK1, pcDNA-HA-PKB-T308D-S473D, and pCMV-SPORT-ILK (Addgene) as templates. The PCR products were then cloned into EcoRI/XhoI sites of the pGEX-4T1 expression vector (GE Healthcare Life Sciences) to generate four constructs (pGEX-4T1-PHLPP1, pGEX-4T1-PDPK1, pGEX-4T1-AKT1, pGEX-4T1-ILK) for the expression of GST-PH domain fusion proteins. The mutated Akt1 Y38G PH domain was generated from pGEX-4T1-AKT1 by site-directed mutagenesis using the QuikChange II XL Site-Directed Mutagenesis Kit (Agilent Technologies). The expression and purification of GST-PH domain fusion proteins were performed essentially as described previously. Thomas et al., Curr Biol 12, 1256 (2002). The purified PH domains were analyzed by SDS-PAGE using an overloaded gel with purities were estimated to be >95% using ImageJ software.
(§3) Binding experiments were performed using a Biacore T100 system (GE Healthcare, Piscataway, N.J.). The GST-PH domain fusion proteins were immobilized on a CM5 S Sensorchip using Biacore's Amine Coupling Kit to a level of 17,000 response units. VE5 compounds and di-octanoyl PIP3 at concentrations ranging from 0.1 to 100 μM and 1 to 20 μm, respectively, were injected at a high flow rate (30 μL/min) over the biosensor surface for binding analyses. DMSO concentrations in all samples and running buffer were 1% (v/v) or less. Data were analyzed using Biacore T100 Evaluation Software.

PC-3 cells = assay: MTT viability assay, PC-3; type: cell-based; conditions: Homo sapiens
Protocol: as §1
(§4) LNCaP cells were plated into poly-D-lysine-coated 96-well plates and PC-3 and LNCaP-abl cells into uncoated plates at the density of 5,000 cells per well in the presence of 10% FBS. Normal prostate epithelial cells were plated into uncoated plates at a density of 8,000 cells per well. […] After 24 hours of treatment, cells were incubated with MTT [3-(4,5-dimethylthiazol-2-yl)-2,5-diphenyl-2H-tetrazolium bromide] (TCI America; 0.5 mg/ml, final concentration) for an additional 2 hours. The medium was then removed from each well and replaced with DMSO to dissolve the reduced MTT dye for subsequent colorimetric measurement of absorbance at 595 nm. Cell viabilities are calculated as percentages of that in the corresponding vehicle-treated control group.

LNCaP cells = assay: MTT viability assay, LNCaP; type: cell-based; conditions: Homo sapiens, 1% FBS-containing or serum-free RPMI 1640 medium for 24 h
Protocol: as §1, §4

[2] = tested on: Akt membrane localization in LNCaP cells; assay: Immunocytochemistry, membrane localization of Akt; type: cell-based; conditions: DMSO-treated cells 38.0±5.7%
Protocol: After 24 hours treatment, LNCaP cells were fixed in 4% formaldehyde for 20 min before permeabilization with 0.1% Triton X-100 in PBS at room temperature for 1 hour followed by incubation in 1% FBS (in PBS) for 1 hour. Cells were stained for endogenous PH domain-containing proteins (Akt, PHLPP, PDK-1, ILK, BTK) by incubation with specific antibodies (1:100), followed by incubation with the Alexa Fluor 555-conjugated goat anti-rabbit or Alexa Fluor 488-conjugated goat anti-mouse IgG (1:200) at room temperature for 2 hours. Both primary and secondary antibodies were diluted in incubation buffer containing 0.1% Triton X-100 and 0.2% bovine serum albumin in PBS. The cells were washed in PBS after each step and mounted using […] mounting medium supplemented with DAPI (Vector Laboratories Inc., Burlingame, Calif.). The slides were allowed to set for at least 4 hours before confocal images were acquired using a Zeiss LSM 510 inverted confocal laser scanning microscope operated with Zeiss LSM 510 software. Image analysis was performed using ImageJ (NIH) software.

[3] = target: T2, PH domain of Akt (GST-PH domain fusion protein) (Homo sapiens, UniProt P31749); assay: Surface plasmon resonance binding, Akt PH domain; conditions: SPR, wild-type PH domain; means (n = 3) ± SD; read-out: Kd, Akt PH domain
T2 construct: made in house
T2 sequence (P31749 5-108 limits assumed): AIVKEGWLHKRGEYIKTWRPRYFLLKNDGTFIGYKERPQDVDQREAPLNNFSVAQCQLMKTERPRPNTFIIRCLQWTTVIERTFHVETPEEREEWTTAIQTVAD
Description: as §2, §3

[4] = target: T3, PH domain of ILK (GST-PH domain fusion protein) (Homo sapiens, UniProt Q13418); assay: Surface plasmon resonance binding, ILK PH domain; conditions: SPR; means (n = 3) ± SD; read-out: Kd, ILK PH domain
T3 construct: made in house
T3 sequence (Q13418 180-212 limits assumed): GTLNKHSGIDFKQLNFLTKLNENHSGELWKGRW
Description: as §2, §3

SMILES | IC50 (LNCaP-abl cells) [µM] | Kd [1] [µM] | IC50 (PC-3 cells; PC-3, 1% FBS-containing or serum-free RPMI 1640 medium for 24 h, read-out: IC50 (μM) PC-3) [µM] | IC50 (LNCaP cells) [µM] | cells with membrane localization of Akt [2] [%] | Kd [3] [µM] | Kd [4] [µM] | IC50 (PC-3 cells; PC-3, 24 h, 1% FBS-containing or serum-free RPMI 1640 medium for 24 h, read-out: IC50 (μM) PC-3) [µM] | IC50 (PC-3 cells; PC-3, Table 3, antitumor activities against PC-3 cells, read-out: IC50) [µM] | IC50 (LNCaP cells; 24 h) [µM]
Cc1c(C)c2c(c(C)c1O)CC[C@@](C)(CCCC(C)C)O2 [α-VE5, (R)-2,5,7,8-tetramethyl-2-(4-methylpentyl)-chroman-6-ol] | 10 | 19.3 ± 0.6 | 15 | 20 | 65.0±8.9 | 3.4 | 26.6 ± 1 |  |  | 
Cc1c(O)cc2c(c1C)O[C@](C)(CCCC(C)C)CC2 [γ-VE5, (R)-2,7,8-trimethyl-2-(4-methylpentyl)-chroman-6-ol] | 7 | 12.4 ± 0.1 |  |  | 71.4±2.5 | 0.9 ± 0.1 | 18.7 ± 4.5 | 8 | 8.5 | 12
